Source: US9618511B2, “Methods and compositions for treating alzheimer's disease” (Eleanore Bennett Charitable Trust #2, priority 2008, dated 2017)
Like-named read-outs stand apart in the source and are kept apart here.

How the values were obtained:
[1] = test system: PDK-dependent activation of Akt1; assay: In vitro PDK-dependent Akt1 phosphorylation and activity assay (immunoprecipitated PDK1 and Akt1, GSK-3 fusion protein substrate); format: biochemical, human (SH-SY5Y, HEK293), mouse (C2C12); conditions: for IC50: in vitro Aβ conditions; for Ki: monomeric-predominant preparations
Method: Akt1 was immunoprecipitated (IP) overnight from 100 μg of the human brain sample or from C2C12 myotubes infected with adenovirus encoding Aβ using a 1:100 dilution of goat anti-Akt1 antibody. The following morning, 40 μl of a 50% slurry of protein G-Agarose (PGA) (Roche Applied Science) was added for an additional 1.5 hours. The beads were washed twice with wash buffer [1× phosphate buffered saline (PBS), 0.5% NP-40, 0.1 mM Na3VO4] and twice with kinase buffer [25 mM Tris (pH 7.5), 2 mM DTT, 0.1 mM Na3VO4, 10 mM MgCl2]. ATP (200 μM) and GSK-3 fusion protein (1 μg/50 μl) were added in the presence of kinase buffer, and the final reaction (50 μl) was incubated 30 minutes at 30° C. The reaction was stopped by adding 40 μl of Laemmli buffer. 20 μl of sample was loaded onto a 10% polyacrylamide gel for fractionation and western detection development.
Immunoprecipitates (IPs) of PDK1 and Akt were prepared from 100 μg of either SH-SY5Y, C2C12 myotubes or from insulin-treated cultures. ATP (200 μM), GSK-3 fusion protein (1 μg/50 μl) and kinase buffer were added to the reaction. Various Aβ peptides were finally added at 0.01, 0.1, 1, 5, 10, 20 μM. Akt activity level was otherwise determined as above.

Rictor-stimulated Akt1 = target: T1, Rictor-stimulated Akt1; assay: Rictor-dependent Akt1 activity, in vitro kinase assay; format: biochemical, mouse (C2C12 myotubes); conditions: 10 μM
T1 construct: endogenous in cells; host or cells: Rictor from insulin-treated C2C12 myotubes
T1 sequence (P31749 whole entry): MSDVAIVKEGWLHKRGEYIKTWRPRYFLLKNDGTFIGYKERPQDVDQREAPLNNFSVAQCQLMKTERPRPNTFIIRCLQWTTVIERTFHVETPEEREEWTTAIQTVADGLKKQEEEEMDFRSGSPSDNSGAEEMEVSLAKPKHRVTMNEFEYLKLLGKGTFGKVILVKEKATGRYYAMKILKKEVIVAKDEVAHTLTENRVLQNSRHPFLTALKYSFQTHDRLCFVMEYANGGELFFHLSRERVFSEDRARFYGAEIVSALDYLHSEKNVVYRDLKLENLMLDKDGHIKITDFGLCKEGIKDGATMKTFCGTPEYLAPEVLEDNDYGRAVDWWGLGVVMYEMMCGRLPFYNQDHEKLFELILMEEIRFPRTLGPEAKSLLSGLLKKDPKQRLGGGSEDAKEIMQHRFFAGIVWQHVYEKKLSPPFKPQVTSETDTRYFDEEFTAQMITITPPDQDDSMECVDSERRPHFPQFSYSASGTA
Excerpt: Another kinase, termed SGK (serum/glucocorticoid regulated kinase), is also activated by PDK. Similar to Akt, SGK has a PH domain and phosphorylates GSK-3 α/β (Kobayashi, T., Deak, M., Morrice, N., and Cohen, P., 1999, Characterization of the structure and regulation of two novel isoforms of serum- and glucocorticoid-induced protein kinase, Biochem J 344 Pt 1:189-197, and Tessier, M., and Woodgett, J. R., 2006, Serum and glucocorticoid-regulated protein kinases: variations on a theme, J Cell Biochem 98:1391-1407). If Aβ inhibits PH-mediated activations of Akt independent of PIP3, it is predicted to affect this mechanism too. Indeed, in FIG. 7D, ADDL-containing Aβ preparations inhibited PDK-stimulated SGK activity (lane 7 vs. 6 and 5). […] This enhanced activity was not however, interrupted by Aβ (10 μM, lane 4 vs. 3). Lastly, another kinase that converges to phosphorylate GSK, PKA (Grimes, C. A., and Jope, R. S., 2001, The multifaceted roles of glycogen synthase kinase 3beta in cellular signaling, Prog Neurobiol 65:391-426; Li, M., Wang, X., Meintzer, M. K., Laessig, T., Birnbaum, M. J., and Heidenreich, K. A., 2000, Cyclic AMP promotes neuronal survival by phosphorylation of glycogen synthase kinase 3beta, Mol Cell Biol 20:9356-9363), was tested. […] Thus, the mechanism of Aβ inhibition of Akt activation is specific to PDK-like kinases. […]

[2] = target: T2, c-AMP-dependent protein kinase A (PKA) (Bos taurus, UniProt P00517); assay: PKA activity assay (GSK-3 substrate phosphorylation); format: biochemical, bovine; conditions: Aβ 10 μM, PKA 2U
T2 construct: purified c-AMP-dependent protein kinase A (PKA, Promega) from bovine heart; purchased Promega; host or cells: bovine heart (tissue-purified)
Method: Recombinant Phosphatase and Tensin Homolog (PTEN; R & D Systems, Minneapolis, Minn.), purified PP2A from human erythrocytes (Upstate, Temecula, Calif.), and purified c-AMP-dependent protein kinase A (PKA, Promega) from bovine heart were stored at −20 and used freshly. PKA inhibitor (PKI, Biosource) and PI3K inhibitor, LY294002 (Cell Signaling) were diluted to 20 or 10 μM in kinase buffer. Antibodies used were: anti-cdk4 (polyclonal), Akt, Actin (polyclonal), and IRa (polyclonal) (Santa Cruz); p-Akt (polyclonal; Ser473 and Thr308), p-GSK-3α/0 (polyclonal; Ser21/9), GSK-30 (polyclonal), IRP (monoclonal), p-Tyrosine (monoclonal), and p-PDK (polyclonal, Ser241) (Cell Signaling, Danvers, Mass.); IRS-1 (monoclonal) and PDK (monoclonal) (BD Biosciences); PI3K (polyclonal, p85) and SGK (polyclonal) (Upstate, Temecula, Calif.); Rictor (polyclonal) (Bethyl Laboratories, Montgomery, Tex.); 6E10 (monoclonal; Covance Co.); R1282 (polyclonal; gift from Dr. Selkoe's lab). Phospholipase A2 (PLA2) was from Sigma. The lipids phosphatidylinositol-tris-3,4,5-phosphate, dipalmitoyl, (PIP3) (Matreya LLC, Pleasant Gap, Pa.), and D-myo-Phosphatidylinositol (PtdIns; PI) (Echelon, Salt Lake City, Utah) were diluted into water or CHCl3:MeOH:H2O (1:2:0.8), aliquoted into 100 μg vials and stored at −20° C. […]

[3] = FIG. 7A, vs reverse peptide 5 μM

Aβ42: synthetic 42 amino acid β-amyloid peptide, forward sequence, freshly prepared, predominantly monomeric (BioSource)
effect on PDK-stimulated Akt activity (GSK-3 substrate phosphorylation) ([1]; 5 μM (or doses up to 5 μM)): dramatically inhibited
effect on PDK-stimulated Akt activity / Akt phosphorylation ([1]; 10 μM): completely abrogated
inhibition of Akt phosphorylation ([1]; 10 μM, freshly prepared predominantly monomeric peptide): up to 50%
effect on PDK-stimulated Akt activity / Akt phosphorylation ([1]; 10 μM, listed as Aβ): inhibited
concentrations that significantly inhibit Akt phosphorylation (activation) [1, 3]: ≥ 10 µM
concentrations that significantly inhibit the stimulation of Akt activity [1, 3]: ≥ 5 µM
concentration at which Akt activation (pSer473, pThr308) and Akt activity begin to be affected ([1]; SH-SY5Y IP kinases, FIG. 6B): ~1 μM
IC50 ([1]; FIG. 7A, read-out: PDK-dependent Akt1 phosphorylation (Ki50)): ~10 µM
IC50 ([1]; activity assay, FIG. 7A, listed as Aβ, read-out: PDK-dependent Akt1 activation (Ki50)): ~1 µM
IC50 ([1]; activity assay, FIG. 7A, read-out: PDK-dependent Akt1 activation (Ki50)): 1 µM
Ki ([1]; read-out: Ki in activity assays): ~2 µM
Ki ([1]; read-out: Ki in western blots of p-Akt levels): ~10 µM
PDK stimulation of Akt activity after preincubation and washout ([1]; preincubation of both IP kinases, washout before kinase reaction): no inhibitory effect
Rictor-stimulated Akt1 activity (Rictor-stimulated Akt1): no change
PKA phosphorylation of GSK-3 α/β substrate [2]: not inhibited
